Results taken from patent US4963553A, “4-[(substituted) alkylcarbonyl]-4,5-dihydro- and -4,5,6,7-tetrahydro-7-[(substituted)phenyl]pyrazolo[1,5-a]pyrimidines” (American Cyanamid Co., priority 1988, dated 1990).
Counter-ions that a name gives are not always drawn.

Key:
[1] = tested on: mice (tetrabenazine-induced depression); assay: Tetrabenazine-induced depression (antidepressant); assay type: in vivo, mouse; design: key: Active: A compound is considered active if 3 or more of 10 mice are protected against the tetrabenazine-induced effects; settings: 25 mg/kg, oral, 10 mice
Description: The compounds of the invention are useful as antidepressant agents in warm-blooded animals as verified in the following tests. First, the antidepressant properties of these compounds were tested by measuring their ability to counteract depression induced in animals by the administration of tetrabenazine methanesulfonate. Each test compound was administered orally to 10 mice at a dose of 25 mg/kg of body weight. Thirty minutes later, tetrabenazine methane sulfonate was administered intraperitoneally to each mouse at a dose of 39 mg/kg of body weight, which dose is known to depress markedly the exploratory behavior of normal mice. Thirty minutes later the mice were tested for their exploratory behavior as described by E. Greenblatt and A. C. Osterberg, Toxicology and Applied Pharmacology, 7. 566-578 (1965). A compound is considered active if 3 or more of 10 mice are protected against the tetrabenazine-induced effects.

[2] = target: T1, human platelet membranes (3H-imipramine receptor) (Homo sapiens, UniProt P31645); assay: 3H-imipramine binding to human platelet membranes
T1 construct: Fresh human platelet concentrates (less than 48 hours old) were obtained from the New York Blood Center; tissue New York Blood Center; host or cells: human blood platelets, membranes
Description: The activity of the compounds of the invention as antidepressant agents was further verified# in the following test which measures the ability of a test compound to inhibit 3H-imipramine binding to human platelet membranes.
Platelet membranes were obtained using the procedure described by Wennogle, L. et al., Pharmac. Biochem. Behav., 15. 975 (1981). Fresh human platelet concentrates (less than 48 hours old) were obtained from the New York Blood Center. These concentrates were prepared in a citrate-dextrose anticoagulant using standard techniques. Platelets were washed twice by centrifugation (2500×G, 10 minutes) in 50 volumes of an antiprotease buffer containing 0.005M Tris potassium chloride, 0.12M sodium chloride, 0.05M Tris pH 7.5, 0.025 Units/ml aprotinin, 0.05 μg/m pepstatin, 2×10^-5 bacitracin, 3 mM ethylenediaminetetraacetic acid and 1.0 mM ethyleneglycol-bis (β-aminoethylether)N,N'-tetra-acetic acid. […] All procedures were conducted at 0° C. using plastic laboratory-ware throughout the platelet membrane preparation. Platelets were resuspended in 20 volumes of buffer and sonicated 3 times using 10 second bursts of a Branson sonifier (cell disrupter 350) at setting 6 (standard 3/4 inch horn), keeping the sample on ice throughout the procedure. Platelet membranes were then washed twice at 18,000×G for 20 minutes with 50 volumes of the antiprotease buffer and resuspended to 3.0 mg. protein/ml using the Bradford protein analysis with bovine gamma globulin as standard. Membranes were used immediately or stored frozen in liquid nitrogen.
The displacement of 3H-imipramine binding to human platelet membranes was performed essentially as described by Paul, S. M., et al., Life Sci., 953 (1980) with the following modifications. Membranes (0.3 mg protein) were suspended in antiprotease buffer with both […] 3H-imipramine (New England Nuclear) and displacing drug or buffer in a total volume of 250 #1 in glass test tubes. Samples were incubated for 90 minutes at 0° C., then diluted to 5 ml in 0.12M sodium chloride, 0.005M potassium chloride, 0.05M Tris pH 7.5 (wash buffer) and immediately filtered through GF/B Whatman Filters and washed twice with 5 ml of wash buffer. Filters were counted in a liquid scintillation counter after addition of Beckman HP Scintillant.
Non-specific binding of 3H-imipramine was defined as that fraction (generally 35%) of radioactivity that was not displaced by 10 μM desmethylimipramine. Specific binding was determined by subtraction of this non-specific level from values for total 3H-imipramine binding which were measured by incubating 3H-imipramine in the absence of displacing drug. Compounds were tested in duplicate test tubes at a concentration of 10 μM. Compounds which inhibited binding by more than 50% were considered to be active.

[3] = tested on: mice (hypoxic environment); assay: Hypoxic survival test; assay type: in vivo, mouse (Royal Hart); settings: intraperitoneal, 10% oxygen, 5 minutes
Outline: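 Groups of 20 Royal Hart mice (6 weeks old) dosed i.p. with compound in saline at 1–200 mg/kg, 30 minutes before exposure to 10% oxygen/90% carbon dioxide; survival scored after 5 minutes. Saline and physostigmine (0.125 mg/kg i.p.) groups run in parallel.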

[4] = tested on: mice (anoxic induced amnesia); assay: Passive Avoidance Anoxic Induced Amnesia Test; assay type: in vivo, mouse (Swiss-Webster, middle-aged); settings: intraperitoneal, vs saline control
Excerpt: A useful in vivo test associated with decreased neural function in mammals is the Passive Avoidance Anoxic Induced Amnesia Test. This test is used to determine the attenuation of anoxic induced amnesia in mice treated with drug, as compared to saline treated control animals with no drug. A shock-motivated, single trial, step-through passive avoidance procedure is used. Groups of 25 Swiss-Webster, middle-aged mice (9 months of age) are placed singly in the front chamber of a 2-chamber box and are allowed to voluntarily cross into the rear chamber. As soon as the mouse enters the rear chamber, a door automatically traps the animal and a mild electric shock (0.4 mA for 4 seconds) is delivered to its feet. Following the foot shock, the mice are initially placed in an anoxic environment (0% oxygen) for 12 seconds, which quickly induces unconsciousness. […] All testing is performed 24 hours later, and in all cases the mice appear fully recovered from the previous anoxic/hypoxic treatment. […] Control animals are injected intraperitoneally only with saline at 0.01 ml/g of body weight. The latent period prior to entering the rear chamber is recorded for both training and testing sessions. The greater the memory of being shocked, the greater the reluctance to enter into the rear chamber and the higher will be the latent period prior to re-entry. […]

[5] = Mus musculus, ip, 5 min, 100 mg/kg, read-out: % Survivors

T1 sequence (P31645 whole entry): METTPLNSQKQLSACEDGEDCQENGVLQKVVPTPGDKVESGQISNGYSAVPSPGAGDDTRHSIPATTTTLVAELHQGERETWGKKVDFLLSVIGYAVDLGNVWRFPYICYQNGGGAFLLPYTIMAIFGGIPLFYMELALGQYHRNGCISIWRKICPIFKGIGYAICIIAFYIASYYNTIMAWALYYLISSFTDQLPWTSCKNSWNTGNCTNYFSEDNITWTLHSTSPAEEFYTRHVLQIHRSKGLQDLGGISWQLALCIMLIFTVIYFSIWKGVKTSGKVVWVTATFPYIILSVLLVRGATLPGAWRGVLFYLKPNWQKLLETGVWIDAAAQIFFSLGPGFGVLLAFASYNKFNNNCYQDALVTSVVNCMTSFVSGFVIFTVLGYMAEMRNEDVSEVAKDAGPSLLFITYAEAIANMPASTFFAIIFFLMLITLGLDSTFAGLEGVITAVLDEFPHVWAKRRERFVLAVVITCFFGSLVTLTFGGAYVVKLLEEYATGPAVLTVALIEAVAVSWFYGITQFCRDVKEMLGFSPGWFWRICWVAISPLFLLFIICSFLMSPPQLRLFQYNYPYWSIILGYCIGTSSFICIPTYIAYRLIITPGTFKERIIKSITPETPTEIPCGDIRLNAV

Question: How did the “Result (protection against tetrabenazine-induced depression)” value (from here on “Result”) [1] turn out when COc1cccc(CN2CCN(CC(=O)N3CC=C(c4cccc(C(F)(F)F)c4)n4ncc(C#N)c43)CC2)c1 [Example 20, 4,5-Dihydro-4-[[4-[(3-methoxyphenyl)methyl]-1-piperazinyl]acetyl]-7-[3-(trifluoromethyl)phenyl]pyrazolo[1,5-a]pyrimidine-3-carbonitrile] was run?
Answer: Active

Question: And the inhibition at 10 µM [2]?
Answer: 78%

Question: How did the “Result” value [1] turn out when N#Cc1cnn2c1N(C(=O)CN1CCN(Cc3ccc4c(c3)OCO4)CC1)CC=C2c1cccc(C(F)(F)F)c1 [Example 23, 4-[[4-(1,3-Benzodioxol-5-ylmethyl)-1-piperazinyl]acetyl]-4,5-dihydro-7-[3-(trifluoromethyl)phenyl]pyrazolo[1,5-a]pyrimidine-3-carbonitrile] was run?
Answer: Active

Question: What about the inhibition at 10 µM [2] of the same molecule?
Answer: 81%

Question: With N#Cc1cnn2c1N(C(=O)CN1CCN(CCCOc3ccccc3)CC1)CCC2c1cccc(C(F)(F)F)c1 (stereo not shown) [Example 57, 4,5,6,7-Tetrahydro-4-[[4-(3-phenoxypropyl)-1-piperazinyl]acetyl]-7-[3-(trifluoromethyl)phenyl]pyrazolo[1,5-a]pyrimidine-3-carbonitrile] as the molecule, how does the responders at 10 mg/kg ([3]; Mus musculus, ip, 5 min, 10 mg/kg, read-out: % Survivors) read?
Answer: 15%

Question: And the inhibition at 10 µM [2]?
Answer: 57%

Question: For COc1cccc(CN2CCN(CC(=O)N3CC=C(c4cccc(C(F)(F)F)c4)n4ncc(C#N)c43)CC2)c1.Cl.Cl [Example 79, 4,5-Dihydro-4-[[4-[(3-methoxyphenyl)methyl]-1-piperazinyl]acetyl]-7-[3-(trifluoromethyl)phenyl]pyrazolo[1,5-a]pyrimidine-3-carbonitrile, dihydrochloride], which “Result” value [1] is on record?
Answer: Active

Question: For N#Cc1cnn2c1N(C(=O)CCN1CCN(Cc3ccc(Cl)cc3)CC1)CC=C2c1cccc(C(F)(F)F)c1 [Example 85, 4-[3-[(4-Chlorophenyl)methyl]-1-piperazinyl]-1-oxopropyl]dihydro-7-[3-(trifluoromethyl)phenyl]pyrazolo[1,5-a]pyrimidine-3-carbonitrile, dihydrochloride], which inhibition at 10 µM [2] is on record?
Answer: 85%

Question: For Cl.N#Cc1cnn2c1N(C(=O)CN1CCN(Cc3ccccc3)CC1)CC=C2c1cccc(C(F)(F)F)c1 [Example 94, 4,5-Dihydro-4-[[4-(phenylmethyl)-1-piperazinyl]acetyl]-7-[3-(trifluoromethyl)phenyl]pyrazolo[1,5-a]pyrimidine-3-carbonitrile, hydrochloride], which “% Survivors” value ([3]; 100 mg/kg) is on record?
Answer: 83%

Question: What about the “% Improvement” value ([4]; 10 mg/kg) of the same molecule?
Answer: 30%

Question: With CN(C)CCN1CCN(CC(=O)N2CC=C(c3cccc(C(F)(F)F)c3)n3ncc(C#N)c32)CC1 [Example 97, 4-[[4-[2-(Dimethylamino)ethyl]-1-piperazinyl]acetyl]4,5-dihydro-7-[3-(trifluoromethyl)phenyl]pyrazolo[1,5-a]pyrimidine-3-carbonitrile. dihydrochloride] as the molecule, how does the inhibition at 10 µM [2] read?
Answer: 72%

Question: With N#Cc1cnn2c1N(C(=O)CN1CCN(CC#CCN3CCCC3=O)CC1)CC=C2c1cccc(C(F)(F)F)c1 [Example 109, 4,5-Dihydro-4-[[4-[4-(2-oxo-1-pyrrolidinyl)-2-butynyl]-1-piperazinyl]acetyl]-7-[3-(trifluoromethyl)phenyl]pyrazolo[1.5-a]pyrimidine-3-carbonitrile] as the molecule, how does the responders at 100 mg/kg [3, 5] read?
Answer: 68%

Question: What about the “% Improvement” value ([4]; 1 mg/kg) of the same molecule?
Answer: 63%

Question: CC1=C(c2ccc(Cl)cc2)n2ncc(C#N)c2N(C(=O)CN2CCN(Cc3cccc(Cl)c3)CC2)C1 [Example 133, 7-(4-Chlorophenyl)-4-[[4-[(3-chlorophenyl)methyl]-1-piperazinyl]acetyl]-4,5-dihydro-6-methylpyrazolo[1,5-a]pyrimidine-3-carbonitrile. dihydrochloride] was tested. Which responders at 100 mg/kg [3, 5] did it give?
Answer: 62%

Question: What about the responders at 200 mg/kg ([3]; Mus musculus, ip, 5 min, 200 mg/kg, read-out: % Survivors) of the same molecule?
Answer: 73%

Question: What about the “% Improvement” value ([4]; 10 mg/kg) of the same molecule?
Answer: 66%

Question: How did the responders at 25 mg/kg ([3]; Mus musculus, ip, 5 min, 25 mg/kg, read-out: % Survivors) turn out when CC(c1ccccc1)N1CCN(CC(=O)N2CC=C(c3cccc(C(F)(F)F)c3)n3ncc(C#N)c32)CC1 (stereo not shown) [Example 141] was run?
Answer: 4%

Question: And the “% Improvement” value ([4]; 25 mg/kg)?
Answer: 39%

Question: With N#Cc1cnn2c1N(C(=O)CN1CCN(Cc3cnn(-c4ccccc4)n3)CC1)CC=C2c1cccc(C(F)(F)F)c1 [Example 146] as the molecule, how does the responders at 100 mg/kg [3, 5] read?
Answer: 52.5%

Question: What about the “% Improvement” value ([4]; 100 mg/kg) of the same molecule?
Answer: 92%

Question: For N#Cc1cnn2c1N(C(=O)CN1CCN(Cc3ccccc3)CC1)CC=C2c1ccccc1 [Example 147, 4,5-Dihydro-7-phenyl-4-[[4-(phenylmethyl)-1-piperazinyl]acetyl]pyrazolo[1,5-a]pyrimidine-3-carbonitrile], which responders at 100 mg/kg [3, 5] is on record?
Answer: 50%

Question: What about the “% Improvement” value ([4]; 25 mg/kg) of the same molecule?
Answer: 45%
